{"source": "patent US9173976B2", "about": "“Compositions and methods for the treatment of bone voids and open fractures” (POLYPID LTD., priority 2012, dated 2015)", "key": {"[1]": {"system": "S. aureus", "conditions": "Shaarei-Zedek Jerusalem Medical Center Database; cited from earlier work"}, "[2]": {"test": "Stability of entrapped Doxycycline during hydration in FBS solution at 37° C.", "format": "physicochemical", "conditions": "after hydration for 21 days, matrix: released+reservoir", "experimental": "Doxycycline is known to degenerate under hydrating conditions. The matrix composition of the present invention can protect Doxycycline from this degradation. The stability of the entrapped Doxycycline during the hydration of the matrix composition (in FBS solution at 37° C.) was tested. At each time point two parameters were tested: 1) Doxycycline molecules released from the medical device of the invention and 2) Doxycycline molecules reservoir in the medical device of the invention. The latter was extracted from the formulation using methylene chloride. The sum of the two Doxycycline quantities represents the overall quantity of Doxycycline in the product at each time point. Free Doxycycline, incubated under the same conditions, was used as control. Results are plotted in FIG. 3."}, "[3]": {"system": "Staphylococcus aureus (ATCC 25923)", "test": "Antibacterial activity of Doxycycline released from coated bone particles", "format": "cell-based", "conditions": "ATCC25923, released at different time points over 30 days following hydration", "experimental": "The antibacterial activity against Staphylococcus aureus (ATCC 25923), of Doxycycline that was released from bone particles coated with the matrix composition of the invention was followed for a period of 30 days following its hydration (FIG. 4). The MIC (Minimal Inhibitory Concentration) for Doxycycline that was released from the matrix composition at different time points was calculated to be ˜1 μg/ml, and MIC 50 (the concentration that inhibits 50% growth) was ˜0.1 μg/ml, values that were similar to the control free Doxycycline."}}}
{"molecule": "penicillin", "values": [{"measurement": "isolated S. aureus sub species in the clinic resistant to the antibiotic", "setting": "[1]", "value": "more than 50%"}]}
{"molecule": "gentamicin", "values": [{"measurement": "isolated S. aureus sub species in the clinic resistant to the antibiotic", "setting": "[1]", "value": "30-40%"}]}
{"molecule": "C[C@H]1c2cccc(O)c2C(=O)C2=C(O)[C@]3(O)C(=O)C(C(N)=O)=C(O)[C@@H](N(C)C)[C@@H]3[C@@H](O)[C@@H]21", "note": "[free Doxycycline, Doxycycline]", "values": [{"measurement": "overall doxycycline remaining intact, of the initial dose", "setting": "[2]", "value": 20, "unit": "%"}, {"measurement": "MIC50", "setting": "[3]; read-out: MIC 50 (the concentration that inhibits 50% growth)", "value": "~0.1", "unit": "µg/mL"}, {"measurement": "MIC", "setting": "[3]; read-out: MIC (Minimal Inhibitory Concentration)", "value": "~1", "unit": "µg/mL"}]}
